According to publication PMC5591292, “Identification of Purple Acid Phosphatases in Chickpea and Potential Roles of CaPAP7 in Seed Phytate Accumulation” (Scientific Reports, 2017):

Biological target: T1, CaPAP7 (Cicer arietinum, UniProt A0A1S2YHG0)
T1 construct: gene PAP7; ORF PCR product of 1008 bp (about 335 residues) in pET28a, E. coli BL21(DE3) pLysS, Ni-NTA purified, ~38 kDa on SDS-PAGE; signal peptide predicted but protein cytoplasmic
T1 sequence (A0A1S2YHG0 1-335): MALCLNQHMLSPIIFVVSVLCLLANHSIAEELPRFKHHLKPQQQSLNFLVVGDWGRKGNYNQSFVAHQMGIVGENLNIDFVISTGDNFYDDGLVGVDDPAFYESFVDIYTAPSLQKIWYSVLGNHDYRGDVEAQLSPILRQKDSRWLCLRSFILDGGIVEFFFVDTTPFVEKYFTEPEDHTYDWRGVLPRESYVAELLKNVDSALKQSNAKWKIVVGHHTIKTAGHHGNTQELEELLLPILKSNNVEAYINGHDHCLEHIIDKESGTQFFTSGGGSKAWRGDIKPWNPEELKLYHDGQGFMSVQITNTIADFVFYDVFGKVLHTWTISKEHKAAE
Test: phosphatase activity assay, […] min
Assay type: biochemical
Settings: 10 mM substrate, 37 °C; maximum activity among substrates tested

SMILES: O=P(O)(O)O[C@H]1[C@H](OP(=O)(O)O)[C@@H](OP(=O)(O)O)[C@H](OP(=O)(O)O)[C@@H](OP(=O)(O)O)[C@H]1OP(=O)(O)O [phytic acid]
- phosphatase activity assay, 30 min: it exhibited maximum catalytic activity for phytic acid
